From patent publication US6849426B2, “Methods and reagents for detecting endotoxin” (Cambrex Bio Science Walkersville, Inc., priority 2001, dated 2005) come the findings set out here.

Holding throughout (format): biochemical
Test [1] deals with T1, recombinant Factor C (rFC) (Carcinoscorpius rotundicauda, UniProt Q26422).
T1 construct: made in house; host or cells: Sf9 insect cells, baculovirus
T1 sequence (Q26422 26-1019): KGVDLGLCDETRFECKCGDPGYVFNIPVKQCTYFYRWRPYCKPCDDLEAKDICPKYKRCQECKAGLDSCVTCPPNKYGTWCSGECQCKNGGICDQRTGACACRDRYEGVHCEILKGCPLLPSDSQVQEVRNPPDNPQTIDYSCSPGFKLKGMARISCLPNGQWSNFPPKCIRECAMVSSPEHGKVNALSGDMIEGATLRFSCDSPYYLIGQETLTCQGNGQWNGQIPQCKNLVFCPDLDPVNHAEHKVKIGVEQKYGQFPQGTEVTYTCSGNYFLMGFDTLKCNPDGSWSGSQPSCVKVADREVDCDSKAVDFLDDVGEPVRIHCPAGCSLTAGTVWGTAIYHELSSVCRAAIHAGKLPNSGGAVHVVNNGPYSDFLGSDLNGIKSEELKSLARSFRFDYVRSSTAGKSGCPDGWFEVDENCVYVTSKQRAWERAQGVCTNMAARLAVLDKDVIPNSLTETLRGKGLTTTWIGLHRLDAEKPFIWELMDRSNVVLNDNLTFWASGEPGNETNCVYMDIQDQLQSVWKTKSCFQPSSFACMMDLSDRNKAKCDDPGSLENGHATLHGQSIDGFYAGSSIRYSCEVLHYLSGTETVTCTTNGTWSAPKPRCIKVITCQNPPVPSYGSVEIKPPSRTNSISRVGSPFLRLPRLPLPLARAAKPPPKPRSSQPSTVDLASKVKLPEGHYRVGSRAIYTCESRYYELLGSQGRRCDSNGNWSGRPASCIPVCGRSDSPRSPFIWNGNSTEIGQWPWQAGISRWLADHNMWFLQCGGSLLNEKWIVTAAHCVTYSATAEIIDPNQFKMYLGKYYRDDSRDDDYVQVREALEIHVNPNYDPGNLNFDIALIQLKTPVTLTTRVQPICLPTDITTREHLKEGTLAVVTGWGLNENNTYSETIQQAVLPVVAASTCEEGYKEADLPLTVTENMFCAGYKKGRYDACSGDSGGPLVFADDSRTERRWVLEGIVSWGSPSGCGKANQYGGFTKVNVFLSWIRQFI
In words: recombinant Factor C (rFC) assay with different detergents. The settings on record: for Detergent concentration range for rFC inhibition / Detergent concentration range for rFC enhancing: 1 EU/ml EC-6, DPR-coumarin substrate, 38° C., data after 30 minutes; for enhancing concentration range (narrow or wide): rFC assay. How it is done:
The recombinant Factor C (rFC) assay was carried out using 20 μl of each detergent (˜10× of final concentration), 150 μl of 1 EU/ml EC-6, 10 μl of rFC supernatant 031901I, 20 μl of 300 mM Tris, pH 8.0, and 20 μl of 0.55 mM DPR-coumarin substrate. The results of the assay were read at 38° C. using a Cytofluor reader set at 390/440 nm, 5 minutes per cycle, for 1 hour. The data were graphed after 30 minutes.

The target of the next test is T2, Recombinant Factor C (Carcinoscorpius rotundicauda, UniProt Q26422).
T2 construct: made in house; host or cells: Sf9 insect cells, baculovirus
T2 sequence (Q26422 26-1019): T1 sequence (Q26422 26-1019)
Description: one-step, 1-hour endpoint endotoxin assay with or without surfactant. The settings on record: assay buffer with or without 0.0125% Zwittergent; endotoxin 055:B5 0.01-10 EU/ml; FIG. 7. As for the experimental part:
A one-step, 1-hour endpoint assay was performed. Endotoxin 055:B5, 0.01, 0.1, 1, and 10 EU/ml were used for the standard curve. Blank and endotoxin standards (100 μl each) were added to a 96-well plate. […] This mixture was added into each blank and endotoxin standard. The fluorescence was recorded at time zero and time 1 hour. The difference in fluorescences (delta fluorescence) were normalized with the blank. Normalized delta fluorescence was then graphed against endotoxin concentration in a log-log scale. Each data point is the result of duplicate assays.

In test [2] the target is T3, recombinant Carcinoscorpius rotundicauda Factor C (Carcinoscorpius rotundicauda, UniProt Q26422).
T3 construct: made in house; host or cells: Sf9 insect cells, baculovirus (pFASTBAC1 bacmid); culture supernatant used without purification
T3 sequence (Q26422 26-1019): T1 sequence (Q26422 26-1019)
In words: two-step and one-step endotoxin assay (Examples 1 and 13). The note with it: assay of Examples 1 and 13. As for the experimental part:
Endotoxin was pre-incubated with culture medium containing recombinant Carcinoscorpius rotundicauda Factor C obtained from recombinant Factor C-producing Sf9 cells for 1 hour in assay buffer (30 mM Tris, pH 8.0, 30 mM NaCl, 0.3% lactose, and 0.0025% Zwittergent 3-14). The substrate N-t-Boc-Asp(Obzl)-Pro-Arg-7-Amido-4-methyl coumarin (DPR-coumarin) was added to the mixture to a final concentration of […]. The fluorescence generated from the cleavage of the substrate by activated Factor C was measured after 15-20 minutes. Results of a similar assay carried out using the substrate N-t-Boc-Val-Pro-Arg-7-Amido-4-methyl coumarin at a final concentration of 100 mM are shown in FIG. 5.
A one-step endotoxin assay can be carried out in a 96-well plate, using 100 μl each of blank and endotoxin standards. […] The plate is incubated at 37° C. for 1 hour. Excitation and emission are read at 390 and 440 nm, respectively, in a fluorescence microplate reader.

The subject of test [3] is purified Limulus factor C. Description: Limulus Factor C activity at different Zwittergent concentrations. The settings on record: FIG. 6; compared with recombinant Factor C assay. As for the experimental part:
The enhancing/inhibiting effect of Zwittergent 3-14 was also tested using purified Limulus factor C (FIG. 6).
We isolated the factor C from Limulus and generated antisera against the protein. The Limulus lysate was first separated with a S-100 gel filtration followed by cation-ion exchange column. The fractions were assayed for factor C activity using the N-t-BOC-Val-Pro-Arg 7-Amido-4-methyl coumarin substrate. The Limulus factor C was purified 73 fold with 80% homogeneity as determined by enzyme assay and SDS-PAGE. The molecular weight of Limulus factor C was 117 kDa by SDS-PAGE under non-reducing conditions. […] A specific polyclonal antibody against the Limulus factor C was generated in rabbits. The anti-factor C purified IgG inhibited the activation of factor C by LPS but had no effect on the protease activity once the factor C was activated by LPS.

Triton X-100: in test [1], the “Detergent concentration range for rFC inhibition” value was “>=0.008%” and the “enhancing concentration range (narrow or wide)” value (from here on “enhancing concentration range”) is “narrow”.
On the same counts, the results for `CCCCCCCCS[C@@H]1O[C@H](CO)[C@@H](O)[C@H](O)[C@H]1O` [OTG, octyl-beta-D-thioglucoside] are “>=0.5%” and “narrow”.
Turning to `CCCCCCCCCCCCOS(=O)(=O)[O-].[Na+]` [SDS], the “Detergent concentration range for rFC inhibition” value in test [1] is “>=0.0004%”.
Turning to “polyoxyethylene (20) sorbitan monolaurate [Tween 20]”, in test [1], the “Detergent concentration range for rFC enhancing” value is 0.001-0.5%, the “Detergent concentration range for rFC inhibition” value is recorded as greater than 0.5% and the “enhancing concentration range” value is “wide”.
Regarding `CCCCCCCCCCCCCC[N+](C)(C)CCCS(=O)(=O)[O-]` [Zwittergent 3-14, N-tetradecyl-N,N-dimethyl-3-ammonio-1-propanesulfonate], in test [1], the “Detergent concentration range for rFC inhibition” value is “>=0.004%” and the “enhancing concentration range” value was “narrow”. Besides, the “increase of endotoxin detection sensitivity when surfactant was included” value at Recombinant Factor C stood at 10 fold. For the same molecule, in test [2], the “optimal concentration of the surfactant” value was 0.0025%. For the same molecule, the “enhancing/inhibiting effect on purified Limulus factor C” value in test [3] is reported as “A similar enhancing/inhibiting effect was observed”.
For the molecule “polyoxyethylene (20) sorbitan monooleate [Tween 80]”, in test [1], the “Detergent concentration range for rFC enhancing” value was 0.001-0.25%, the “Detergent concentration range for rFC inhibition” value is greater than 0.25% and the “enhancing concentration range” value was “wide”.
